Patent US20160223547A1, “MARKER FOR PREDICTING METASTASIS OF BREAST CANCER” (priority 2013, published 2016)

Columns and labels:
[1] = tested on: BRV5CA1 cells (clones 424-2 and 424-8, silenced GRP94; Pool, non-silenced GRP94); test: MTT cytotoxicity assay of taxotere on brain metastatic breast cancer cells with silenced or non-silenced GRP94; assay type: cell-based; conditions: clones 424-2 and 424-8 (silenced GRP94) vs pool, 1-10 ng/ml, 72 h
Description: To […], three sublines were used: Clones: 424-2 and 424-8 (silenced GRP94 [shGRP94]) and a Pool (non-silenced GRP94), from the metastatic variant BRV5Ca1.
For the cytotoxicity assay, each cell type was seeded in triplicate in a 96-well plate (Costar® 3596; Corning Incorporated) at a density of 6000 cells/well in 50 μL of complete medium (DMEM/F12 GIBCO® with serum). Twenty-four hours after seeding the cells, they were treated with taxotere (docetaxel >99%; LC Laboratories (www.LCLabs.com); Stock 200 mg/ml), at different concentrations in triplicate: 10-5-2.5-1 and 0 ng/ml, in a volume of 50 μL/well. Seventy-two hours after the start of the treatment, a cell viability assay MTT was carried out in which survival expressed as a percentage (%) was analyzed (FIG. 2). […]
After this time, the medium was removed from the wells and 50 μL of MTT [3-(4,5-dimethylthiazol-2-yl)-2,5-diphenyltetrazolium bromide; Sigma-Aldrich) were added per well, at a concentration of 5 mg MTT/ml of medium without serum. […] It was left to stir for 10-15 minutes (in the dark) and was then analyzed in the microplate spectrophotometer (PowerWave™ XS; BioTek) at a wavelength of 540 nm.
Absorbance values (OD) were obtained in triplicate for each of the treatment concentrations established. The calculated mean was expressed in reference to the control thereof (0 ng/ml), considered as the maximum survival value (100%).

FN14 = test: Immunohistochemistry of FN14 expression in triple-negative breast carcinoma grafts treated with lenalidomide; assay type: in vivo; conditions: triple-negative breast carcinoma graft in immunosuppressed mice, vs carrier control, anti-FN14 immunohistochemistry
Description: Experimental tumors induced in the breast of immunosuppressed mice by implanting small biopsy fragments (2×2 mm) from patients with triple-negative breast carcinoma. An example of one of these grafts treated with lenalidomide (LND) with respect to the same graft treated with the carrier (control) is shown.
For expression studies, the immunohistochemistry technique with specific anti-FN14 antibodies (sc-27143, C-13, Santa Cruz Biotechnology) at a concentration of 1/3000 was used. Kidney and heart tissues were used as control tissues to view the expression in the cell membrane. The antigens were exposed by heating the preparations in a pressure cooker for 7 minutes in the suitable citrate buffer (Sanz et al., Am J Pathol, 179(2):564-579, 2011).
The primary antibody was diluted in the Dako diluent buffer (Dako, Glostrup, Denmark; Carpinteria, Calif.): Tris buffer, pH 7.2, 15 mmol/1 of NaN3. The LSAB peroxidase system (Dako), including biotinylated secondary antibody, followed by conjugated streptavidin, was used along with the ultraView detection kit (Ventana Benchmark XT, Roche, Tucson, Ariz.). The tumors were classified in three categories considering staining intensity: negative, weakly positive and strongly positive. Only those which are strongly positive in more than 30% of the tumor cells were considered with the overexpressed protein.

[2] = tested on: brain metastases of breast cancer induced by BRV5CA1 cells; test: Therapeutic effect on brain metastases induced by BRV5CA1 cells, luciferase emission monitored in vivo; conditions: female Athymic Nude-Foxn1nu mice, 50 mg/kg/d on consecutive days, after a week of treatment
Description: The therapeutic effect of lenalidomide was analyzed by treating the brain metastases of breast cancer induced by injecting BRV5CA1 cells labeled with the luciferase gene into female Athymic Nude-Foxnlnu mice (Martinez-Aranda A., Int. J. Mol. Sci. 2013, 14(4), 8306-8327). The treatment groups N=8 (lenalidomide 50 mg/kg/d on consecutive days) and the control group, in which carrier was injected, were established. The start of the treatment was established on day 14 after the graft and treatment was maintained for 15 days until the end of the experiment. The treatment was started on day 13 after induction and progression of the growth of metastasis was monitored in vivo by quantifying luciferase emission (photons per second) (FIG. 7). After a week of treatment, the difference in growth of the metastasis between the control group and the treated group was significant.

[3] = tested on: xenotransplant of breast cancer metastasizing to the brain; test: Effect of taxotere on growth of intramammary xenografts; assay type: in vivo; conditions: Athymic Nude-Foxn1nu mice, 15 mg/kg/day every 4 days for two weeks, vs carrier control, p=0.003
Description: A xenotransplant of breast cancer metastasizing to the brain provided by Dr. Eva Gonzalez was used to induce breast tumors in immunosuppressed Athymic Nude-Foxnlnu mice weighing 22-28 grams acquired from Charles-River Laboratories (Wilmington, Mass.) and to establish groups that are treated or not treated with taxotere following a previously established standard protocol of 15 mg/kg/day every 4 days for two weeks (Bin Gu et al., Carcinogenesis, 2004). The 2 mm^3 tumor fragment was implanted in the inguinal breast of female mice and 10 days were waited out for the graft to progress. After evaluating the volume of the tumor, treatment with taxotere was started, considering in each case a control group which was treated with the drug carrier.

CC(=O)O[C@H]1C(=O)[C@@]2(C)[C@H]([C@H](OC(=O)c3ccccc3)[C@]3(O)C[C@H](OC(=O)[C@H](O)[C@@H](NC(=O)c4ccccc4)c4ccccc4)C(C)=C1C3(C)C)[C@]1(OC(C)=O)CO[C@@H]1C[C@@H]2O [taxol, 11-methano-5H-cyclodeca[3,4]benz[1,2-b]oxete benzenepropanoic acid deriv.]
survival of cells after treatment (percentage of survival with respect to the control) [1]: lower survival

Nc1cccc2c1CN(C1CCC(=O)NC1=O)C2=O (centres unmarked) [lenalidomide]
expression of FN14 in tumor graft (FN14): inhibition of the expression of FN14 | difference in growth of the metastasis between control group and treated group (luciferase emission, photons per second) [2]: significant

CC(=O)O[C@@]12CO[C@@H]1C[C@H](O)[C@@]1(C)C(=O)[C@H](O)C3=C(C)[C@@H](OC(=O)[C@H](O)[C@@H](NC(=O)OC(C)(C)C)c4ccccc4)C[C@@](O)([C@@H](OC(=O)c4ccccc4)[C@H]21)C3(C)C [taxotere, N-debenzoyl-N-tert-butoxycarbonyl-10-deacetyl taxol]
survival of cells after treatment (percentage of survival with respect to the control) [1]: significantly reduces the survival | tumor growth (normalized volume divided by the initial volume) [3]: tendency to grow less than that of the control
